Measurements taken from patent US20260242390A1, “TOTAL SYNTHESES OF PORTIMINE A AND ANALOGUES THEREOF AS SMALL MOLECULE MODULATORS OF NMD3” (priority 2023, published 2026).

Key:
Bcl2 = Bcl2 protein level in Jurkat cells; type: cell-based, human; settings: 6/12 hrs
Method: FIG. 7. Portimine A targets NMD3 and prevents polysome formation. […] (A) Immunoblot showing reduced NMD3 levels in shNMD3 Jurkat and HeLa cells. […] Jurkat cells were treated with 12.5 nM of PA for 12 or 24 hours. Jurkat and HeLa cells were treated with 5 nM or 150 nM of PA for 24 hours. Data represents mean±SD of biologically replicated experiments (n=3). […] Cell lysates were fractionated by sucrose gradient (5-50%) and each fraction were analyzed by western blot. eIF6 levels increase in 60S subunit fraction and decrease in ribosome-free fractions after PA treatment. RPS6, a 40S and polysome subunits marker, is decreased in polysome fractions after PA treatment. Results are representative of three independent experiments. […] Relative protein levels in each fraction were normalized to the peak fraction of the indicated protein from the DMSO cells and plotted. Data represents mean±SD of biologically replicated experiments (n=3). Statistical analysis was performed using multiple unpaired Student t-test. * p≤0.05; ** p≤0.01; *** p≤0.005; **** p≤0.0001. Treatment condition: Jurkat (5 M per condition); Incubate cells (1 M/mL) with inhibitors for 6 hr, 12 hr and 24 hr, respectively.
• 1) Portimine A and its functional analogs show stereo-selective acute toxicity in cancer cells (FIG. 1). […] (B) Structure of portimine related analogs: phenyl-portimine A (Ph-PA, 36) and epi-portimine A (ePA, 38). […]

GBM-F = test: Broad cell line profiling, GBM-F; type: cell-based; settings: Homo sapiens, Glioblastoma Cancer Stem Cell, read-out: PA IC50
Excerpt: • A panel of human and mouse cancer cell types used to assess the breadth of PA activity, including multiple therapy resistant metastatic mesenchymal tumor cell lines and primary glioblastoma patient-derived metastatic stem/tumor initiating cell populations.

C=CC1=C[C@@H]2[C@@H]3O[C@]4(CC[C@H](O4)C(C)C[C@@H](O)C3=O)CC(O)C3=NCC[C@@]32CC1 (some centres unmarked) [PA, portimine A]
Bcl2 levels (Bcl2): does not affect | IC50 (GBM-F): 2.6 nM
